Entries after “also recorded” stand apart in the source; their conditions may differ. Where no end group is shown, it is not given here.

The subject of test [1] is endothelium-denuded rat aortic rings. Description: Vasoconstrictor activity in endothelium-denuded rat aorta. Particulars: mean ± SEM, ET-1 n = 7, KP-10 tissues from 4 animals, KP-54 tissues from 3 animals. How it is done: Rat thoracic aorta was cleaned of connective tissue and cut into 4 mm rings and the endothelial layer removed by gentle rubbing. Tissues were set to a basal tension at which the maximum response to 100 mM KCl was generated and subsequent responses to kisspeptins were expressed as % of this KCl response. Aortic rings were then contracted with 10 µM phenylephrine and 1 µM ACh was added; a reduction in the phenylephrine response of <10% was taken as evidence of removal of endothelium. […] Experiments were terminated by the addition of 100 mM KCl and agonist responses were expressed as a % of this KCl maximum.
(§1) Radioligand binding study data were analyzed using the iterative, non-linear curve fitting programs EBDA and LIGAND in the KELL package (Biosoft, Cambridge, UK). Pooled KD, BMAX and Hill slopes (nH) were expressed as mean±SEM and normalized to protein concentrations. In vitro pharmacology data agonist responses were expressed as %CaCl2 response in the paced atrial tissues and %KCl in the vasoconstrictor studies and data were fitted to a four parameter logistic equation using an iterative curve-fitting program (FigSys, Biosoft, Cambridge, UK) to obtain values for potency (pD2: the negative logarithm to the base 10 of the EC50) and maximum response (EMAX: %CaCl2 or %KCl, respectively) expressed as mean±SEM. Where appropriate, values were compared by one-way analysis of variance (ANOVA). In all cases P<0.05 was considered statistically significant and n-values were the number of animals or patients from which data were obtained.

Test [2] addresses T1, kisspeptin receptor (Homo sapiens, UniProt Q969F8).
T1 construct: cryostat-cut sections of human (15 µm) or rat (10 µm) heart; from tissue; host or cells: human right atria (control, dilated cardiomyopathy, ischaemic heart disease), cryostat sections
The test is described as follows: Inotropic activity in human paced atrial strips. The conditions noted are these: human atrial strips. How it is done:
(§2) Paired rat or mouse atria, or 4 mm strips of human atrial appendage, were mounted in 10 ml organ baths containing oxygenated Krebs solution at 37°C as described previously. […] Experiments were terminated by the addition of 6.7 mM CaCl2 (final bath concentration 8.95 mM) and responses expressed as a % of this CaCl2 maximum. Radioligand binding study data were analyzed using the iterative, non-linear curve fitting programs EBDA and LIGAND in the KELL package (Biosoft, Cambridge, UK). Pooled KD, BMAX and Hill slopes (nH) were expressed as mean±SEM and normalized to protein concentrations. […] Where appropriate, values were compared by one-way analysis of variance (ANOVA). In all cases P<0.05 was considered statistically significant and n-values were the number of animals or patients from which data were obtained.

For test [3], the target named is kisspeptin receptor (Rattus norvegicus, UniProt Q924U1). Description: Inotropic activity in rat paced paired atria. Set-up: Paired rat or mouse atria; from tissue; host or cells: rat paired atria. How it is done: as §2
Chain of kisspeptin receptor (Rattus norvegicus, UniProt Q924U1) (Q924U1 whole entry): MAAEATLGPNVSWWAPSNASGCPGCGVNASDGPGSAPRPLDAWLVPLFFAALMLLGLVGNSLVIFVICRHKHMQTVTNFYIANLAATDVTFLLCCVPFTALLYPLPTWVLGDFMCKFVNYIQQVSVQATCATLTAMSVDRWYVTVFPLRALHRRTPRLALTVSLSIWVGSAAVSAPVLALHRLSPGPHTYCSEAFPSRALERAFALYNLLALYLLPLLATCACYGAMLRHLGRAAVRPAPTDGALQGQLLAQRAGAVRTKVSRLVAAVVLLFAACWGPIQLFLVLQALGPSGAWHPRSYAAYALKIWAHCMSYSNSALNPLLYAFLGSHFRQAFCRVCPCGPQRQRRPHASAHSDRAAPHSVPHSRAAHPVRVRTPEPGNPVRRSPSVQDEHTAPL
A further test has as its system Kiss1r ^−/− atria. Description: Inotropic activity in atria of mice with targeted disruption of Kiss1r. Set-up: species or system mouse. The method, then:
(§3) Paired rat or mouse atria, or 4 mm strips of human atrial appendage, were mounted in 10 ml organ baths containing oxygenated Krebs solution at 37°C as described previously. Tension on the tissue was adjusted to 50% of that at which the maximum force was generated and then paced at 1 Hz, square-wave pulse, 5 ms duration, with the voltage just above threshold (<4.0 V). […] Experiments were terminated by the addition of 6.7 mM CaCl2 (final bath concentration 8.95 mM) and responses expressed as a % of this CaCl2 maximum.
as §1, with “In all cases P<0.05 was considered statistically significant and n-values were the number of animals or patients from which data were obtained.” left out

Test [4] concerns the target T2, kisspeptin receptor (Mus musculus, UniProt Q91V45).
T2 construct: Paired rat or mouse atria; from tissue; host or cells: mouse paired atria, wild type
The test is described as follows: Inotropic activity in mouse paced atria, wild type (Kiss1r ^+/+). Particulars: % of CaCl2 maximum (8.95 mM final), mean ± SEM, n = 6, read-out: Emax (maximum positive inotropic response). The method, then:
as §3
as §1, with “In all cases P<0.05 was considered statistically significant and n-values were the number of animals or patients from which data were obtained.” left out

For test [5] the following is noted: ref [47]; cited from earlier work.
The conditions of test [6]: ref [44]; cited from earlier work. From the text:
Our discovery that kisspeptins are positive inotropic agents in human and rodent heart is the first report of such activity. […] Activation of these signaling pathways would be consistent with function as both an inotropic a ...

Another test relates to native human tissue. The conditions noted are these: ref [40]; cited from earlier work.
In test [7] the test system is human coronary artery and umbilical vein. The conditions noted are these: ref [31]; cited from earlier work. The source says: We have recently identified a further role for kisspeptin as a vasoactive peptide. We detected kisspeptin and kisspeptin receptor expression in human vasculature, and intriguingly found this to be restricted to the aorta, coronary artery and umbilical vein, vessels with the same developmental origin. […] However, to our knowledge, a cardiac role of kisspeptin has not yet been investigated in man, nor any cardiovascular effects ...

T1 sequence (Q969F8 whole entry): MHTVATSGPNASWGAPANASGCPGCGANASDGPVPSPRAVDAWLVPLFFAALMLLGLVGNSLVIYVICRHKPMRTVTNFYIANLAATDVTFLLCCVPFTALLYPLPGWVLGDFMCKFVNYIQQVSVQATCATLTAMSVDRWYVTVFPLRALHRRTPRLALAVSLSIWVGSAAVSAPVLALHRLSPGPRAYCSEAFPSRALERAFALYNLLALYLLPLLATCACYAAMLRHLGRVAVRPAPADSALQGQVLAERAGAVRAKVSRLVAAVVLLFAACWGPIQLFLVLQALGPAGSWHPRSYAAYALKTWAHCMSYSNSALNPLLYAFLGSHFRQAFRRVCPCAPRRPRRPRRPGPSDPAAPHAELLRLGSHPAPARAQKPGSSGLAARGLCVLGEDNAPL
T2 sequence (Q91V45 whole entry): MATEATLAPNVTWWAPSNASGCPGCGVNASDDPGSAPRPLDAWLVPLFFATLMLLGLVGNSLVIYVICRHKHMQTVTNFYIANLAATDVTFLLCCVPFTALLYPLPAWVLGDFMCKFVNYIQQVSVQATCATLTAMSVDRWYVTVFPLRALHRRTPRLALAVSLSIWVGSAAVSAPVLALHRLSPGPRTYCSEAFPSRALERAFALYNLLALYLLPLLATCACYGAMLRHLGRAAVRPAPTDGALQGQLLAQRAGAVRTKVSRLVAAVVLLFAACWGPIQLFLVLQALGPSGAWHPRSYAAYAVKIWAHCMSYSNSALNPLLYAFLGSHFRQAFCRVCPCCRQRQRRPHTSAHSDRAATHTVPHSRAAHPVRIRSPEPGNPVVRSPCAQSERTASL

Take `CC[C@H](C)[C@H](NC(=O)[C@H](CCC(N)=O)NC(=O)[C@H](CCCNC(=N)N)NC(=O)[C@H](CO)NC(=O)[C@H](Cc1c[nH]cn1)NC(=O)[C@@H]1CCCN1C(=O)[C@H](C)NC(=O)[C@H](CO)NC(=O)[C@H](CC(C)C)NC(=O)CNC(=O)[C@@H]1CCCN1C(=O)[C@H](CCC(N)=O)NC(=O)[C@H](CCC(N)=O)NC(=O)[C@H](CCCNC(=N)N)NC(=O)[C@H](CO)NC(=O)CNC(=O)[C@H](CO)NC(=O)[C@H](CO)NC(=O)[C@H](CCC(=O)O)NC(=O)[C@@H]1CCCN1C(=O)[C@@H]1CCCN1C(=O)[C@@H]1CCCN1C(=O)[C@H](CO)NC(=O)[C@H](CC(C)C)NC(=O)[C@H](CO)NC(=O)[C@@H](NC(=O)CN)[C@@H](C)O)C(=O)N1CCC[C@H]1C(=O)N[C@@H](C)C(=O)N1CCC[C@H]1C(=O)N[C@@H](CCC(N)=O)C(=O)NCC(=O)N[C@@H](C)C(=O)N[C@H](C(=O)N[C@@H](CC(C)C)C(=O)N[C@H](C(=O)N[C@@H](CCC(N)=O)C(=O)N[C@@H](CCCNC(=N)N)C(=O)N[C@@H](CCC(=O)O)C(=O)N[C@@H](CCCCN)C(=O)N[C@@H](CC(=O)O)C(=O)N[C@@H](CC(C)C)C(=O)N1CCC[C@H]1C(=O)N[C@@H](CC(N)=O)C(=O)N[C@@H](Cc1ccc(O)cc1)C(=O)N[C@@H](CC(N)=O)C(=O)N[C@@H](Cc1c[nH]c2ccccc12)C(=O)N[C@@H](CC(N)=O)C(=O)N[C@@H](CO)C(=O)N[C@@H](Cc1ccccc1)C(=O)NCC(=O)N[C@@H](CC(C)C)C(=O)N[C@@H](CCCNC(=N)N)C(=O)N[C@@H](Cc1ccccc1)C(N)=O)C(C)C)C(C)C` [KP-54]: the “EMAX (maximum vasoconstrictor response)” value in test [1] (% of 100 mM KCl maximum, endothelium-denuded rat aorta) was found to be 97±1 % KCl. Besides, the “pD2 (vasoconstriction)” value in test [1] (endothelium-denuded rat thoracic aortic rings, KP-10, KP-54 10^−12–3×10^−9 M, ET-1 10^−10–3×10^−7 M) amounted to 10.47±0.26. Besides, the Emax (commonly the greatest response seen or fitted, relative to the assay's reference) on kisspeptin receptor [2] (% of CaCl2 maximum (8.95 mM final), mean ± SEM, n = 5, read-out: EMAX (maximum positive inotropic response)) is 82 ± 13%; on kisspeptin receptor [3] (read-out: EMAX (maximum positive inotropic response)), 14 ± 2%; at kisspeptin receptor [4], 26 ± 4%. In addition, the lusitropic effects result on kisspeptin receptor [2] (half time to peak force and half time to relaxation) is given as “Lusitropic effects were not observed”; on kisspeptin receptor [3] (rat atria, half time to peak force and half time to relaxation), “Lusitropic effects were not observed”. Besides, the “inotropic response in Kiss1r ^−/− atria” value in the test on Kiss1r ^−/− atria is given as “lack of effect; also recorded: no inotropic response”. In addition, the anti-angiogenic activity result in test [5] is given as “anti-angiogenic”.

As for apelin, the “pD2 (inotropic effect)” value in test [6] was 9.9. Further, the BMAX in the test on native human tissue is 3.1 fmol/mg.

Regarding “kisspeptin: Kisspeptin, or KP-54; also used generically for the endogenous peptides and kisspeptin-like immunoreactivity (GTSLSPPPESSGSPQQPGLSAPHSRQIPAPQGAVLVQREKDLPNYNWNSFGLRF; ends and bridges not checked; UniProt Q15726 68-121, looked up)”, the “inotropic response in Kiss1r ^−/− atria” value in the test with Kiss1r ^−/− atria is “No response”. The vasoconstrictor activity result in test [7] is “potent vasoconstrictor”.

The values above are taken from publication PMC3222648, “Inotropic Action of the Puberty Hormone Kisspeptin in Rat, Mouse and Human: Cardiovascular Distribution and Characteristics of the Kisspeptin Receptor” (PLoS ONE, 2011).
